Experimental data taken from ChEMBL document CHEMBL1140395, “Diamino-C,N-diarylpyridine positional isomers as inhibitors of lysophosphatidic acid acyltransferase-beta” (Bioorg Med Chem Lett, 2005).
“And” between values parts separate entries of the source, which are not always exact repeats. Equal values may be shown once.

Target: T1, 1-acyl-sn-glycerol-3-phosphate acyltransferase beta (Homo sapiens, UniProt O15120)
T1 sequence (O15120 whole entry): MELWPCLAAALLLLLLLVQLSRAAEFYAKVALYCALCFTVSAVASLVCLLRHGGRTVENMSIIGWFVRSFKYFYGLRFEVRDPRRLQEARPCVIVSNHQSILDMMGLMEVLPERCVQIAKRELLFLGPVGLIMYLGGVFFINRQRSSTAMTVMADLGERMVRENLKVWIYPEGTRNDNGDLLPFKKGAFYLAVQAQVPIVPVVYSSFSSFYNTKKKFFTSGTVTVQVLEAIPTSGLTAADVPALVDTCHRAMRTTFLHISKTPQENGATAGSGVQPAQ
Experiment: Inhibitory activity against Lysophosphatidic acid acyltransferase-beta enzyme over-expressed in Sf9 insect cell membrane

Row | SMILES | IC50
1 | CCOc1ccc(Cl)cc1-c1nc(N)nc(Nc2ccc(Cl)cc2)n1 | 260 nM
2 | COc1ccc(Cl)cc1-c1cc(Nc2ccc(C)cc2)cc(N)n1 | > 40000 nM
3 | COc1ccc(Cl)cc1-c1nc(N)nc(Nc2ccc(Cl)cc2)n1 | 70 nM and 45 nM
4 | COc1ccc(Cl)cc1-c1cc(N)nc(Nc2ccc(Cl)cc2)n1 | 2050 nM
